These results are taken from patent US8802678B2, “Carbonylated (aza) cyclohexanes as dopamine D3 receptor ligands” (Bioprojet, priority 2006, dated 2014).

The term melting point denotes the temperature, or range, at which the solid turns liquid. Compound `CCc1cccc(N2CCN(CC[C@H]3CC[C@@H](NC(=O)CC#N)CC3)CC2)c1` [Example 328, 2-Cyano-N-(4-{2-[4-(3-ethylphenyl)piperazin-1-yl]ethyl}cyclohexyl)acetamide] came in with a melting point of 101 °C. As for `C[S+]([O-])CC(=O)N[C@H]1CC[C@H](CCN2CCN(c3cccc(C(F)(F)F)c3)CC2)CC1` (stereo partly shown) [Example 334, 2-Methanesulfinyl-N-(4-{2-[4-(3-trifluoromethylphenyl)piperazin-1-yl]ethyl}cyclohexyl)acetamide], the melting point is 153 °C.

Take `CC(C)c1cccc(N2CCN(CC[C@H]3CC[C@H](NC(=O)CC#N)CC3)CC2)c1` [Example 335, 2-Cyano-N-(4-{2-[4-(3-isopropylphenyl)piperazin-1-yl]ethyl}cyclohexyl)acetamide]: the melting point was 153 °C. The figure for `Cc1cc(C)cc(N2CCN(CC[C@H]3CC[C@@H](NC(=O)CC#N)CC3)CC2)c1` [Example 336, 2-Cyano-N-(4-{2-[4-(3,5-dimethylphenyl)piperazin-1-yl]ethyl}cyclohexyl)acetamide] is 119 °C; for `CS(=O)(=O)CC(=O)N[C@H]1CC[C@H](CCN2CCN(c3cccc(C(F)(F)F)c3)CC2)CC1` [Example 337, 2-Methanesulfonyl-N-(4-{2-[4-(3-trifluoromethylphenyl)piperazin-1-yl]ethyl}cyclohexyl)acetamide] it is 158 °C.

As to `Cc1ccc(N2CCN(CC[C@H]3CC[C@H](NC(=O)CC#N)CC3)CC2)cc1F` [Example 339, 2-Cyano-N-(4-{2-[4-(3-fluoro-4-methylphenyl)piperazin-1-yl]ethyl}cyclohexyl)acetamide], the melting point is 208 °C. The figure for `Cc1ccc(N2CCN(CC[C@H]3CC[C@H](NC(=O)CC#N)CC3)CC2)cc1C` [Example 340, 2-Cyano-N-(4-{2-[4-(3,4-dimethylphenyl)piperazin-1-yl]ethyl}cyclohexyl)acetamide] is 210 °C; for `N#CCC(=O)N[C@H]1CC[C@H](CCN2CCN(c3cc(F)c(F)c(F)c3)CC2)CC1` [Example 341, 2-Cyano-N-(4-{2-[4-(3,4,5-trifluorophenyl)piperazin-1-yl]ethyl}cyclohexyl)acetamide] it is 209 °C; for `N#CCC(=O)N[C@H]1CC[C@H](CCN2CCN(c3cccc(SC(F)(F)F)c3)CC2)CC1` [Example 343, 2-Cyano-N-(4-{2-[4-(3-trifluoromethylsulfanylphenyl)piperazin-1-yl]ethyl}cyclohexyl)-acetamide] it is 165 °C. `CS(=O)(=O)c1cccc(N2CCN(CC[C@H]3CC[C@H](NC(=O)CC#N)CC3)CC2)c1` [Example 351, 2-Cyano-N-(4-{2-[4-(3-methanesulfonylphenyl)piperazin-1-yl]ethyl}cyclohexyl)acetamide]: the melting point came out at 195 °C. In turn, `N#CCC(=O)N[C@H]1CC[C@H](CCN2CCN(c3cccc(C(F)F)c3)CC2)CC1` [Example 354, 2-Cyano-N-(4-{2-[4-(3-difluoromethylphenyl)piperazin-1-yl]ethyl}cyclohexyl)acetamide] returned a melting point of 185 °C. As to `Cc1c(F)cccc1N1CCN(CC[C@H]2CC[C@H](NC(=O)CCCC#N)CC2)CC1` [Example 356, 4-Cyano-N-(4-{2-[4-(3-fluoro-2-methylphenyl)piperazin-1-yl]ethyl}cyclohexyl)butanamide], the melting point is 159 °C.

Regarding `N#CCCCC(=O)N[C@H]1CC[C@H](CCN2CCN(c3ccc(F)c(F)c3)CC2)CC1` [Example 357, 4-Cyano-N-(4-{2-[4-(3,4-difluorophenyl)piperazin-1-yl]ethyl}cyclohexyl)butanamide], the melting point amounted to 141 °C. For the compound `Cc1cc(N2CCN(CC[C@H]3CC[C@H](NC(=O)CCCC#N)CC3)CC2)ccc1F` [Example 358], the melting point was 160 °C. Compound `N#CCC(=O)N[C@H]1CC[C@H](CCN2CCN(c3ccc(Cl)cc3F)CC2)CC1` [Example 359, N-(4-{2-[4-(4-Chloro-2-fluorophenyl)piperazin-1-yl]ethyl}cyclohexyl)-2-cyanoacetamide] showed a melting point of 218 °C. `N#CCC(=O)N[C@H]1CC[C@H](CCN2CCN(c3ccc(Cl)c(C(F)(F)F)c3)CC2)CC1` [Example 360, N-(4-{2-[4-(4-Chloro-3-trifluoromethylphenyl)piperazin-1-yl]ethyl}cyclohexyl)-2-cyanoacetamide] displayed a melting point of 187 °C. On to `N#CCCCC(=O)N[C@H]1CC[C@H](CCN2CCN(c3cccc(SC(F)(F)F)c3)CC2)CC1` [Example 363, 4-Cyano-N-(4-{2-[4-(3-trifluoromethylsulfanylphenyl)piperazin-1-yl]ethyl}cyclohexyl)butanamide], for which the melting point came out at 150 °C. The figure for `N#CCCCC(=O)N[C@H]1CC[C@H](CCN2CCN(c3cccc(C(F)F)c3)CC2)CC1` [Example 364, 4-Cyano-N-(4-{2-[4-(3-difluoromethylphenyl)piperazin-1-yl]ethyl}cyclohexyl)butanamide] is 155 °C; for `N#CCCCC(=O)N[C@H]1CC[C@H](CCN2CCN(c3ccc4c(c3)OCO4)CC2)CC1` [Example 365, N-{4-[2-(4-Benzo[1,3]dioxol-5-ylpiperazin-1-yl)ethyl]cyclohexyl}-4-cyanobutanamide] it is 189 °C; for `N#CCCCC(=O)N[C@H]1CC[C@@H](CCN2CCN(c3cccc(C(F)(F)F)c3F)CC2)CC1` [Example 366, 4-Cyano-N-(4-{2-[4-(2-fluoro-3-trifluoromethylphenyl)piperazin-1-yl]ethyl}cyclohexyl)butanamide] it is 95 °C.

`N#CCCCC(=O)N[C@H]1CC[C@H](CCN2CCN(c3ccc(Cl)c(Cl)c3)CC2)CC1` [Example 368, 4-Cyano-N-(4-{2-[4-(3,4-dichlorophenyl)piperazin-1-yl]ethyl}cyclohexyl)butanamide]: the melting point was determined as 151 °C. The figure for `Cc1ccc(N2CCN(CC[C@H]3CC[C@H](NC(=O)CC#N)CC3)CC2)cc1Cl` [Example 369, N-(4-{2-[4-(3-Chloro-4-methylphenyl)piperazin-1-yl]ethyl}cyclohexyl)-2-cyanoacetamide] is 220 °C; for `N#CCC(=O)N[C@H]1CC[C@H](CCN2CCN(c3ccc(C#N)cc3)CC2)CC1` [Example 370, 2-Cyano-N-(4-{2-[4-(4-cyanophenyl)piperazin-1-yl]ethyl}cyclohexyl)acetamide] it is 228 °C; for `N#CCCCC(=O)N[C@H]1CC[C@H](CCN2CCN(c3cc(Cl)ccc3Cl)CC2)CC1` [Example 371, 4-Cyano-N-(4-{2-[4-(2,5-dichlorophenyl)piperazin-1-yl]ethyl}cyclohexyl)butanamide] it is 179 °C.

The compound `COc1ccccc1N1CCN(CC[C@H]2CC[C@H](NC(=O)C3CC=CC3)CC2)CC1` [Example 372, Cyclopent-3-enecarboxylic acid (4-{2-[4-(2-methoxyphenyl)piperazin-1-yl]ethyl}cyclohexyl) amide] showed a melting point of 202 °C. The figure for `O=C(CC1C=CCC1)N[C@H]1CC[C@H](CCN2CCN(c3cccc(C(F)(F)F)c3)CC2)CC1` (stereo partly shown) [Example 373, 2-Cyclopent-2-enyl-N-(4-{2-[4-(3-trifluoromethylphenyl)piperazin-1-yl]ethyl}cyclohexyl)acetamide] is 154 °C; for `N#CCCCC(=O)N[C@H]1CC[C@H](CCN2CCN(c3cc(F)c(F)c(F)c3)CC2)CC1` [Example 374, 4-Cyano-N-(4-{2-[4-(3,4,5-trifluorophenyl)piperazin-1-yl]ethyl}cyclohexyl)butanamide] it is 156 °C; for `CC(=O)c1cccc(N2CCN(CC[C@H]3CC[C@H](NC(=O)CCCC#N)CC3)CC2)c1` [Example 375] it is 181 °C. The compound `N#CCC(=O)N[C@H]1CC[C@H](CCN2CCN(c3ccccc3C#N)CC2)CC1` [Example 376, 2-Cyano-N-(4-{2-[4-(2-cyanophenyl)piperazin-1-yl]ethyl}cyclohexyl)acetamide] displayed a melting point of 190 °C.

As to `N#CCCCC(=O)N[C@H]1CC[C@H](CCN2CCN(c3ccccc3C#N)CC2)CC1` [Example 377, 4-Cyano-N-(4-{2-[4-(2-cyanophenyl)piperazin-1-yl]ethyl}cyclohexyl)butanamide], the melting point was determined as 160 °C.

In turn, `CCc1cccc(N2CCN(CC[C@H]3CC[C@H](NC(=O)C4CC=CC4)CC3)CC2)c1` [Example 378, Cyclopent-3-enecarboxylic acid (4-{2-[4-(3-ethylphenyl)piperazin-1-yl]ethyl}cyclohexyl) amide] showed a melting point of 185 °C. With `Cc1cccc(N2CCN(CC[C@H]3CC[C@H](NC(=O)C4CC=CC4)CC3)CC2)c1` [Example 379, Cyclopent-3-enecarboxylic acid {4-[2-(4-m-tolylpiperazin-1-yl)ethyl]cyclohexyl}], the melting point came out at 200 °C.

For `Cc1cccc(N2CCN(CC[C@H]3CC[C@H](NC(=O)C4=CCCC4)CC3)CC2)c1` [Example 380, Cyclopent-1-enecarboxylic acid {4-[2-(4-m-tolylpiperazin-1-yl)ethyl]cyclohexyl} amide], the melting point came to 188 °C.

With `Cc1ccc(N2CCN(CC[C@H]3CC[C@H](NC(=O)CCCC#N)CC3)CC2)cc1Cl` [Example 381, N-(4-{2-[4-(3-Chloro-4-methylphenyl)piperazin-1-yl]ethyl}cyclohexyl)-4-cyanobutanamide], the melting point turned out to be 168 °C. The figure for `COc1ccccc1N1CCN(CC[C@H]2CC[C@H](NC(=O)CCCC#N)CC2)CC1` [Example 382, 4-Cyano-N-(4-{2-[4-(2-methoxyphenyl)piperazin-1-yl]ethyl}cyclohexyl)butanamide] is 147 °C; for `Cc1ccc(C(F)(F)F)cc1N1CCN(CC[C@H]2CC[C@H](NC(=O)CC#N)CC2)CC1` [Example 383, 2-Cyano-N-(4-{2-[4-(2-methyl-5-trifluoromethylphenyl)piperazin-1-yl]ethyl}cyclohexyl)acetamide] it is 192 °C.

`O=C(N[C@H]1CC[C@H](CCN2CCN(c3ccc(F)cc3F)CC2)CC1)C1=CCCC1` [Example 384, Cyclopent-1-enecarboxylic acid (4-{2-[4-(2,4-difluorphenyl)-piperazin-1-yl]ethyl}cyclohexyl) amide] registered a melting point of 205 °C.
